Assay results taken from US8841299B2, “Substituted pyrrolo[1,2-a]pyrazines as tankyrase inhibitors” (Hoffman-La Roche Inc., priority 2012, dated 2014).

How the values were obtained:
Tankyrase 1 (TNKS1) = biological target: T1, Tankyrase 1 (TNKS1) (Homo sapiens, UniProt O95271); test: μHTS-TNKS-IWR2 TR-FRET binding assay, TNKS1
T1 construct: His6-TNKS1, MW=28.2 KDa (construct: 1088-1327, I266M)
Method: (§1) μHTS-TNKS-IWR2 TR-FRET Binding Assay
(§2) (10 μL/well in BD1536-well plate, a single point)
(§3) Biotin-IWR2: 10 mM Biotin-IWR2 stock in DMSO, stored at −20° C.
(§4) Assay buffer 1a (AB1a) for TNKS dilution: 50 mM Tris, pH 7.4, 100 mM sodium chloride solution, 1 mM magnesium chloride solution, 1 mM DL-dithiothreitol solution, 0.2 mg/mL bovine serum albumin solution, 0.025% NP-40.
(§5) Assay buffer 1b (AB1b) for Biotin-IWR2 dilution: 50 mM Tris, pH 7.4, 100 mM sodium chloride solution, 1 mM magnesium chloride solution, 1 mM DL-dithiothreitol solution, 0.2 mg/mL bovine serum albumin solution, 0.05% NP-40
(§6) Assay buffer 1c (AB1c) for compound dilution: 50 mM Tris, pH 7.4, 100 mM sodium chloride solution, 1 mM magnesium chloride solution, 1 mM DL-dithiothreitol solution, 0.2 mg/mL bovine serum albumin solution
(§7) Assay buffer 2 (AB2) for Eu/APC: 50 mM Tris, pH 7.4, 100 mM sodium chloride solution, 1 mM magnesium chloride solution, 0.2 mg/mL bovine serum albumin solution
(§8) Prepare BLANK well stock solution: 5% DMSO/AB1b buffer
(§9) Prepare TNKS1 stock solution (5× stock): 300 nM TNKS in AB1a buffer
(§10) Transfer 3 μL/well of above solution (solution 1, 2, 3) to an empty assay plate (BD1536-well plate) as follows:
(§11) TOTAL and cpd wells: Solution 1 (Biotin-IWR2):
(§12) BLANK wells: Solution 2 (No Biotin-IWR2):
(§13) POSITIVE CONTROL wells: Solution 3 (Biotin-IWR2+XAV939)
(§14) Transfer 3 μL/well of the above diluted compound solutions or compound dilution buffer to the above assay plate.
(§15) Add 2 μL/well of 300 nM TNKS stock solution (4) to every well in the above assay plate
(§16) Centrifuge the assay plate at 2100 rpm for 2 minutes.
(§17) Incubate the assay plate at 26° C. for 30 minutes.
(§18) Add 2 μL/well 3.5 nMEu/50 nM APC solution (5) to every well in the above assay plate.
(§19) Incubate the assay plate at 26° C. for 60 minutes.

tankyrase 2 (TNKS2) = biological target: T2, tankyrase 2 (TNKS2) (Homo sapiens, UniProt Q9H2K2); test: μHTS-TNKS-IWR2 TR-FRET binding assay, TNKS2 in place of TNKS1; settings: His6-TNKS2 (construct 934-1166), Biotin-IWR2 60 nM
T2 construct: His6-tankyrase 2 (construct: 934-1166) (His6-TNKS2)
T2 sequence (Q9H2K2 934-1166): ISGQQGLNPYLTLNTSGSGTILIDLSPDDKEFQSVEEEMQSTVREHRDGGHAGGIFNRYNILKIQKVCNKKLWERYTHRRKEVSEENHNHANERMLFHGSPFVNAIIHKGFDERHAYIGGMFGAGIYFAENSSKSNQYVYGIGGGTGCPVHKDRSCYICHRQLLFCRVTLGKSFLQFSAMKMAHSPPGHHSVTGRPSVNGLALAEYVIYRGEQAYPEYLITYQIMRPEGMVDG
Method: as §1, §2
(§20) Tankyrase 1 (TNKS1): 184.3 μM=5.2 mg/mL His6-TNKS1, MW=28.2 KDa (construct: 1088-1327, I266M) in 20 mM Tris pH 8, 150 mM NaCl, 10% glycerol, and 0.5 mM TCEP Alternatively, in place of His6-TNKS1 can use either His6-tankyrase 2 (construct: 934-1166) (His6-TNKS2) or His6-PARP1 (full length).
as §3
Positive control: 10 mM XAV 939 in DMSO, stored at −20° C.
(§21) Eu-Streptavidin: 38.1 μM (2.1 mg/mL) Eu-SA (Bio #Eu-2212, Lot #N 18001-BDHO2)
(§22) APC-anti-His Ab: 8.50 μM SL-APC, 8.26 μM anti-6His antibody-SureLight APC (Columia Bioscience, Cat #D3-1711, Lot #N01010-AAH04)
(§23) Assay plate: BD 1536-well, clear/black plate (Cat #353255)
as §4, §5, §6, §7
(§24) Prepare Biotinylated IWR2 stock solution (3.33× stock) for TOTL and cpd wells: 200 nM Biotin-IWR2 in 5% DMSO/AB1b buffer
as §8
(§25) Prepare POSITIVE CONTROL well stock solution (3.33× stock): 200 nM XAV939 in 200 nM Biotin-IWR2/5% DMSO/AB1b buffer
as §9
(§26) (Alternatively, use TNKS2 or PARP1 stock solutions.)
(§27) Prepare Eu/APC stock solution (5× stock): 3.5 nM Eu-SA/50 nM APC-His6Ab in AB2 buffer
(§28) Add 25 μL/well 1.5% DMSO/AB1c buffer in each compound well to the compound concentration at 74 μM in 8.8% DMSO/AB1c buffer or in the 2 μL DMSO CONTROL wells (BLANK, TOTAL and POSITIVE wells) in the compound plate.
as §10, §11, §12, §13, §14, §15, §16, §17, §18, §19
(§29) Read the assay plate immediately at excitation wavelength of 330 nm and emission wavelength of […] in time resolved fluorescence mode.
XAV939 (+ve control): 60 nM at ˜70% Inhibition
(§30) General Library compounds: 22.23 μM in 4% DMSO

PARP1 = biological target: T3, PARP1 (Homo sapiens, UniProt P09874); test: μHTS-TNKS-IWR2 TR-FRET binding assay, PARP1 in place of TNKS1; settings: His6-PARP1 (full length), Biotin-IWR2 60 nM
T3 construct: or His6-PARP1 (full length)
T3 sequence (P09874 whole entry): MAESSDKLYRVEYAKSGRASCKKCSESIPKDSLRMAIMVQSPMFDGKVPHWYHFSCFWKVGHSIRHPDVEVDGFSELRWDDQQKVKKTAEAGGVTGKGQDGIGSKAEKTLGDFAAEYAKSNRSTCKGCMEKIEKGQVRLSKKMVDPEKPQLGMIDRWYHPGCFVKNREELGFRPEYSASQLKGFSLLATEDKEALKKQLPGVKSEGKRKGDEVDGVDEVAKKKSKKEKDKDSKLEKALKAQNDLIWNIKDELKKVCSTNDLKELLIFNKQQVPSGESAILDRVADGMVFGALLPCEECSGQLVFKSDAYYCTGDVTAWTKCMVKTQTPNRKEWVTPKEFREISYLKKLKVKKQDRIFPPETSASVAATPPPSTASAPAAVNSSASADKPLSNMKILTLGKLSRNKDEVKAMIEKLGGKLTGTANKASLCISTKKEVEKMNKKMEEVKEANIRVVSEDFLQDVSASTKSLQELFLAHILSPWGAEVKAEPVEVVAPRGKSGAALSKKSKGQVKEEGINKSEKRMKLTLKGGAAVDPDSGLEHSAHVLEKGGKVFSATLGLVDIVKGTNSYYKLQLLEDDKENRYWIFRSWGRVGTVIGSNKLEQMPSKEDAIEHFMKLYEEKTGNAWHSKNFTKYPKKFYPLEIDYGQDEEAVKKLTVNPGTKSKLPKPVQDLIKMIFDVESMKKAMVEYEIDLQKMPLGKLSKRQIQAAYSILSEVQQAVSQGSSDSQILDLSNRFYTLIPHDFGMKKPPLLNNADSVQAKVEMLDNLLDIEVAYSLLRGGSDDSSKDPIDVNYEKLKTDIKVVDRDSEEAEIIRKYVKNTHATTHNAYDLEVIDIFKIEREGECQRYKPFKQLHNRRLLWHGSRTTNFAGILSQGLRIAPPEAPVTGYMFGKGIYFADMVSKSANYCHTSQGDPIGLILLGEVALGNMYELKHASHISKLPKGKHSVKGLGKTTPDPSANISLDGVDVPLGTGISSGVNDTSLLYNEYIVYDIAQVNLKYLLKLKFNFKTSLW
Method: as §1, §2, §20, §3
Positive control: 10 mM […] in DMSO, stored at −20° C.
as §21, §22, §23, §4, §5, §6, §7, §24, §8, §25, §9, §26, §27, §28, §10, §11, §12, §13, §14, §15, §16, §17, §18, §19, §29, §30

T1 sequence (O95271 1088-1327): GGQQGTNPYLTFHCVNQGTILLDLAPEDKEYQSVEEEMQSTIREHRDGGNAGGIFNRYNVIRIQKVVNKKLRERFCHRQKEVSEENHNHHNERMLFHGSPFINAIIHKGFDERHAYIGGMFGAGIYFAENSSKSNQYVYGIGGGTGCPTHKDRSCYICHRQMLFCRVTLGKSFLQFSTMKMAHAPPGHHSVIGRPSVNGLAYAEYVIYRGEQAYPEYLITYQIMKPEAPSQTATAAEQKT

SMILES	IC50 (Tankyrase 1 (TNKS1)) [µM]	IC50 (tankyrase 2 (TNKS2)) [µM]	IC50 (PARP1) [µM]
N=C(N)c1ccc2c(=O)[nH]c(-c3ccc(C(F)(F)F)cc3)cn12 [Example 5, 1-Oxo-3-(4-trifluoromethyl-phenyl)-1,2-dihydro-pyrrolo[1,2-a]pyrazine-6-carboxamidine]	6.79	12.7	> 50
COc1ccc(-c2cn3c(Br)ccc3c(=O)[nH]2)cc1 [Example 1, 6-Bromo-3-(4-methoxy-phenyl)-2H-pyrrolo[1,2-a]pyrazin-1-one]	0.054	0.145	> 50
Cc1ccc2c(=O)[nH]c(N3CCN(c4ccccc4F)CC3)cn12 [Example 9, 3-[4-(2-Fluoro-phenyl)-piperazin-1-yl]-6-methyl-2H-pyrrolo[1,2-a]pyrazin-1-one]	0.068	0.068	2.74
N/C(=N\O)c1ccc2c(=O)[nH]c(-c3ccc(C(F)(F)F)cc3)cn12 [Example 3, N-Hydroxy-1-oxo-3-(4-trifluoromethyl-phenyl)-1,2-dihydro-pyrrolo[1,2-a]pyrazine-6-carboxamidine]	0.192	1.26	> 50

Continued, values first:

IC50 (Tankyrase 1 (TNKS1)) [µM]	IC50 (tankyrase 2 (TNKS2)) [µM]	IC50 (PARP1) [µM]	SMILES
0.77	1.9	29.5	NC(=O)c1ccc2c(=O)[nH]c(-c3ccc(C(F)(F)F)cc3)cn12 [Example 4, 1-Oxo-3-(4-trifluoromethyl-phenyl)-1,2-dihydro-pyrrolo[1,2-a]pyrazine-6-carboxylic acid amide]
0.056	0.158	1.25	O=c1[nH]c(-c2ccc(C(F)(F)F)cc2)cn2c(Br)ccc12 [Example 10, 6-Bromo-3-(4-trifluoromethyl-phenyl)-2H-pyrrolo[1,2-a]pyrazin-1-one]
0.017	0.715	11.4	O=c1[nH]c(-c2ccc(C(F)(F)F)cc2)cn2c(CO)ccc12 [Example 8, 6-Hydroxymethyl-3-(4-trifluoromethyl-phenyl)-2H-pyrrolo[1,2-a]pyrazin-1-one]
0.232	0.995	31.2	N#Cc1ccc2c(=O)[nH]c(-c3ccc(C(F)(F)F)cc3)cn12 [Example 2, 1-Oxo-3-(4-trifluoromethyl-phenyl)-1,2-dihydro-pyrrolo[1,2-a]pyrazine-6-carbonitrile]
1.11	1.84	34.9	O=c1[nH]c(-c2ccc(C(F)(F)F)cc2)cn2c(C3=NCCN3)ccc12 [Example 6, 6-(4,5-Dihydro-1H-imidazol-2-yl)-3-(4-trifluoromethyl-phenyl)-2H-pyrrolo[1,2-a]pyrazin-1-one]
0.032	0.072	0.172	Cc1ccc2c(=O)[nH]c(-c3ccc(C(F)(F)F)cc3)cn12 [Example 7, 6-Methyl-3-(4-trifluoromethyl-phenyl)-2H-pyrrolo[1,2-a]pyrazin-1-one]
